According to US10557124B2, “Compositions and methods for obtaining stem cell derived lung tissue, and related uses thereof” (The Regents of the University of Michigan, priority 2015, dated 2020):

Key:
Format in all cases: cell-based, human
[1] = tested on: foregut spheroids (NOG+SB+FGF4+Ch); experiment: qRT-PCR of foregut spheroids generated with addition of HH agonist SAG; details: SAG added to NOG+SB+FGF4+Ch spheres; compared to spheres without SAG
Protocol: Based on the observations that stimulating HH and inhibiting FGF signaling strongly enhances NKX2.1 expression while reducing PAX8 expression (FIG. 5), multiple conditions of HH activation and FGF inhibition to induce NKX2.1^HI/PAX8^LO foregut spheroids (NOG/SB/F/Ch) were tested (FIG. 8). […] Therefore, several conditions were also tested that stimulated HH signaling using SAG only, without FGF inhibition. […] Additionally, nuclear NKX2.1 protein expression was found in ECAD+ epithelium which co-expressed endoderm epithelial markers FOXA2 and SOX2 (FIG. 10B, C, FIG. 11). […] Thus, concomitant down-regulation of SOX2 and increased NKX2.1 observed in SAG treated foregut spheroids is consistent with early transcriptional changes that occur during lung specification in mice.
After differentiation into definitive endoderm, cells were incubated in foregut media with NOG, SB, 500 ng/mL FGF4 (R&D Systems), and 2 μM CHIR99021 (Chiron, Stemgent) for 4-6 days. After 4 days with treatment of growth factors, three-dimensional floating spheroids were present in the culture. Three-dimensional spheroids were transferred into Matrigel to support 3D growth as previously described (see, e.g., McCracken K W, et al., Nature Protocols; 2011 Nov. 10; 6(12):1920-8). Briefly, spheroids were embedded in a droplet of Matrigel (BD Bioscience #356237) in one well of a 24 well plate, and incubated at room temperature for 10 minutes. After the Matrigel solidified, foregut media with 1% Fetal bovine serum (FBS, CAT#: 16000-044, Life Technologies) or other growth factors and small molecules were overlaid and replaced every 4 days. Organoids were transferred into new Matrigel droplets every 10 to 15 days.
RNA was extracted from monolayers, spheroids, and organoids using a MagMAX-96 Total RNA Isolation Kit (Life Technologies) and MAG Max Express (Applied Biosystems). RNA quantity and quality were determined spectrophotometrically, using a Nano Drop 2000 (Thermoscientific). Reverse transcription was conducted using the SuperScript VILO kit (Invitrogen), according to manufacturer's protocol. Finally, qRT-PCR was carried out using Quantitect Sybr Green MasterMix (Qiagen) on a Step One Plus Real-Time PCR system (Life Technologies).

[2] = tested on: anterior foregut endoderm (hESC-derived, ActivinA then NOG/SB); experiment: qRT-PCR of SHH, NKX2.1, PAX8 in foregut endoderm monolayer cultures treated with FGF/HH modulators; details: for PAX8 expression / SHH expression / NKX2.1 expression: vs foregut control (FGF2: vs untreated endoderm controls), FGF2 50/500 ng/mL; for PAX8 expression / NKX2.1 expression: Sant-2 10 μM
Excerpt: Many signaling pathways are important for lung induction and development (see, e.g., Wong A P, et al., Nat Biotechnol. 2012 Aug. 26; Huang S X L, et al., Nature; 2013 Dec. 1; 1-11; Firth A L, et al., Proceedings of the National Academy of Sciences. 2014 Apr. 29; 111(17):E1723-30; Mou H, et al., Cell Stem Cell. 2012 Apr. 6; 10(4):385-97; Ghaedi M, et al., J. Clin. Invest. 2013 Nov. 1; 123(11):4950-62; Longmire T A, et al., Cell Stem Cell. 2012 Apr. 6; 10(4):398-411; Rankin S A, Zorn A M. Gene Regulatory Networks Governing Lung Specification. J Cell Biochem. 2014 Mar. 19; Morrisey E E, et al., Developmental Cell. Elsevier Inc; 2010 Jan. 19; 18(1):8-23; Min H, et al., Genes & Development. 1998 Oct. 15; 12(20):3156-61; Weaver M, et al., Development. 2000 June; 127(12):2695-704). […] 2011 Feb. 3; 470(7332):105-9; Wells J M, et al., Development. 2014 February; 141(4):752-60; Motoyama J, et al., Nat Genet. 1998 September; 20(1):54-7) and Hh signaling is important for lung mesenchyme proliferation in vivo (see, e.g., Bellusci S, et al., Development. 1997 January; 124(1):53-63). […] It has been reported that approximately 85-95% of cells are endoderm, but a portion of the remaining cells are mesodermal and this small mesodermal population is maintained in the spheroids and organoids (see, e.g., Spence J R, et al., Nature. 2011 Feb. 3; 470(7332):105-9; McCracken K W, et al., Nature; 2014 Oct. 29; 1-19; Green M D, et al., Nat Biotechnol.; 2011 Feb. 27; 1-7) (FIG. 4). Therefore, based on mouse and hPSC studies, it was hypothesized that FGF and/or HH signaling would induce an NKX2.1+ lung lineage in anterior foregut endoderm. To test this hypothesis experiments initially focused on adherent endoderm monolayer cultures to optimize induction conditions. Cultures were treated for 4 days with ActivinA followed by an additional 4 days with NOG/SB (referred to as Foregut). Controls consisted of ActivinA treatment only followed by no additional growth factors (Endoderm controls), or ActivinA followed by NOG/SB, followed by no additional factors (Foregut controls). All experimental groups were compared to both endoderm and foregut controls (FIG. 6). The ability of FGF2 to induce SHH, NKX2.1 and PAX8 was first tested by exposing foregut cultures to low and high concentrations of FGF2 (50,500 ng/mL) (FIG. 6A). […] It was also observed that dual NOG/SB inhibition in endoderm cultures induced robust NKX2.1 and PAX8 expression without adding FGF2 (FIG. 1B, 6A). Thus, it was desired to determine if NKX2.1 expression in foregut cultures was due to endogenous FGF and/or HH signaling. To test this, the FGF or HH pathway was inhibited with small molecules SU5402 (SU, 10 μm) and Sant-2 (10 μm) respectively (FIG. 6B-C). Treating foregut cultures with the FGF inhibitor SU caused a significant, robust reduction in PAX8 and a modest reduction in SHH, while NKX2.1 expression was unchanged compared to foregut control (FIG. 6B). […] To test if HH signaling was able to induce NKX2.1 in foregut cultures, the Smoothened agonist, SAG (1 μM), was added to foregut cultures. The addition of SAG induced a 6.5 fold increase of NKX2.1 expression above foregut controls (FIG. 6D).
This combination caused an additional increase in NKX2.1 expression (21 fold vs. 6.5 fold with SAG only, when compared to foregut) and a concomitant decrease in PAX8 mRNA (FIG. 6D).
(§1) After differentiation into definitive endoderm, foregut endoderm was differentiated, essentially as described (see, e.g., Green M D, et al., Nat Biotechnol. Nature Publishing Group; 2011 Feb. 27; 1-7). Briefly, cells were incubated in foregut media: Advanced DMEM/F12 plus N-2 and B27 supplement, 10 mM Hepes, lx L-Glutamine (200 mM), lx Penicillin-streptomycin (5,000 U/mL, all from Life Technologies) with 200 ng/mL Noggin (NOG, R&D Systems) and 10 μM SB431542 (SB, Stemgent) for 4 days. […]

[3] = tested on: anterior foregut endoderm (hESC-derived, ActivinA then NOG/SB); experiment: Immunofluorescence of NKX2.1 and PAX8 positive cells in foregut monolayer cultures; details: compared to endoderm and foregut controls
Protocol: Importantly, immunofluorescence correlated with QRT-PCR data showing an increased number of NKX2.1+ cells with the addition of SAG only. […] SAG and SAG+SU treated cells also co-expressed FOXA2 and SOX2 confirming their endodermal origin (FIG. 2).
as §1
HLOs with P63+ cells were counted as having proximal airway-like epithelium and HLOs with SFTPC+ cells were counted as having distal airway-like epithelium. The area of proximal epithelium was determined by P63+ECAD+ staining. Area was measured using ImageJ software. Cell quantification of NKX2.1, P63, and DAPI was counted by Metamorph cell counting software. FOXJ1, SFTPC, and HOPX were counted in ImageJ using the cell counter plugin.

[4] = tested on: NOG/SB/F/Ch/SAG treated foregut spheroids; experiment: Expansion of foregut spheroids in Matrigel into lung organoids; details: FGF10 500 ng/mL, Matrigel 3D culture
Excerpt: NOG/SB/F/Ch/SAG treated foregut spheroids were embedded in Matrigel to provide a 3D growth environment. Spheroids maintained in basal media supplemented with 1% FBS lost ECAD+ epithelial structures and were mainly comprised of mesenchyme within 20 days of 3D culture (FIG. 9D,E). FGF10 is essential for branching morphogenesis and maintenance of lung progenitor cells during development as well as tissue homeostasis in the adult lung (see, e.g., Motoyama J, et al., Nat Genet. 1998 September; 20(1):54-7; Li Y, et al., Developmental Biology. 2004 Jun. 1; 270(1):214-31; Bellusci S, et al., Development. 1997 January; 124(1):53-63; Min H, et al., Genes & Development. 1998 Oct. 15; 12(20):3156-61; Weaver M, et al., Development. 2000 June; 127(12):2695-704; Agha El E, et al., Development. 2013 Dec. 18; Volckaert T, et al., Development 2013 September; 140(18):3731-42). It was observed that the addition of FGF10 (500 ng/mL) allowed spheroids to expand and be passaged for over 100 days. FGF10 promoted the maintenance of ECAD+ epithelial structures with less mesenchymal contributions compared to both basal and FGF inhibitor conditions (FIG. 10D). […] SOX2+ domains and SOX9+ domains were distributed throughout the entire HLO as determined by whole mount immunofluorescence and confocal Z-sections (FIG. 14). […]

With `CNC1CCC(N(Cc2cccc(-c3ccncc3)c2)C(=O)c2sc3ccccc3c2Cl)CC1` (stereo not shown) [SAG] the CDX2 transcript [1] was “reduction”, the HHEX transcript [1] was “not significantly different” and the NKX2.1 transcript [1] was “significant increase”. For the same molecule, the PAX8 transcript [1] was “not significantly different”, the PDX1 transcript [1] was “not significantly different” and the SOX2 transcript [1] was “reduction”. For the same molecule, the “increase of NKX2.1 expression” value ([2]; foregut endoderm treated 8 days, SAG 1 μM, SU 10 μM, compared to untreated foregut controls) was 6.5 fold, the PAX8 expression ([2]; SU 10 μM, SAG 1 μM) was “unchanged” and the “NKX2.1+ cells (immunohistochemistry)” value [3] was “more NKX2.1+ cells”.

For `Cc1c[nH]c(/C=C2\C(=O)Nc3ccccc32)c1CCC(=O)O` [SU5402], the GLI1 expression ([2]; compared to foregut controls) was “not significantly different”, the PTCH1 expression ([2]; compared to foregut controls) was “not significantly different” and the SHH expression ([2]; SU 10 μM) was “significant reduction”. For the same molecule, the NKX2.1 expression ([2]; SU 10 μM) was “not significantly different” and the PAX8 expression ([2]; SU 10 μM, SAG 1 μM) was “significant reduction”.

“FGF2: fibroblast growth factor 2 (R&D systems)” was tested, and the SHH expression ([2]; SU 10 μM) was “dose dependent increase”, the NKX2.1 expression ([2]; SU 10 μM) was “modest increase” and the PAX8 expression ([2]; SU 10 μM, SAG 1 μM) was “dose dependent increase”.

In the case of Sant-2, the NKX2.1 expression ([2]; SU 10 μM) is reported as “significant reduction”.

B1: FGF10: protein that belongs to the fibroblast growth factor (FGF) family (protein, UniProt O15520 38-208, looked up)
Fibroblast growth factor 10: QALGQDMVSPEATNSSSSSFSSPSSAGRHVRSYNHLQGDVRWRKLFSFTKYFLKIEKNGKVSGTKKENCPYSILEITSVEIGVVAVKAINSNYYLAMNKKGKLYGSKEFNNDCKLKERIEENGYNTYASFNWQHNGRQMYVALNGKGAPRRGQKTRRKNTSAHFLPMVVHS
With B1 the “time spheroids could expand and be passaged” value [4] was “over 100 days”.
